We go through 1 molecule from patent US6197774A, “Pyrimidine derivative” (Otsuka Pharmaceutical Co., Ltd., priority 1997, dated 2001).

Molecules are shown by their SMILES.

This assay concerns contact hypersensitivity. In words: Contact hypersensitivity model in mouse (atopic dermatitis model). In kind it is in vivo. The conditions noted are these: po, 2 mg/Kg p.o., 30 minutes before causal induction, 24 hours, read-out: Control % (intumescence of the pinna, untreated = 100). Here is the method: [Contact hypersensitivity model in mouse (Atopic dermatisis model)]
Test was conducted by referring to the method as described in "HIFU (a Japanese journal of dermatology)" Vol. 35, Supplemental Issue No. 15, pp. 96-106, published on March 1993.
CBA/J strain mice of 6-8 week age were used as the test animals (6-8 mice in one group). The mouse was sensitized by coating 150 μl of 5% of picryl chloride [dissolved in a mixture of acetone with olive oil (1:4)] on the shaved portion of skin in the back of mouse. […] 24 Hours after the causal induction, the effect for inhibiting contact hypersensitivity performed by the test compounds were evaluated by referring to the action for inhibiting intumescence of the pinna as an indication. The test compound was orally administered 30 minutes before the causal induction.
The following compounds were used for the test.
1) Compounds of the Present Invention:
(Dosage: 20 mg/Kg p.o., which is 7-10 times larger amount of dosages for compounds of the present invention)
The value obtained from the sensitization test without administration of the test compound was referred to as 100, and by comparing with the values obtained from the sensitization test with administration of the test compound was referred to "% control" values.

Regarding `COCc1cc(=O)n2ncc(-c3ccc(Sc4ccccc4)cc3)c2[nH]1` [Example 1, 4,7-dihydro-5-methoxymethyl-7-oxo-3-(4-phenylthiophenyl)pyrazolo[1,5-a]pyrimidine], the response vs control in vivo at 2 mg/kg was 53.7%.
